Experimental data taken from patent US10829501B2 (BRISTOL-MYERS SQUIBB COMPANY, priority 2016, dated 2020).
Counter-ions that a name gives are not always drawn.

Biological target: ROCK2 (Homo sapiens, UniProt O75116)
Test: ROCK2 kinase inhibition assay (LABCHIP 3000 Reader, FITC peptide substrate);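 further: rho kinase reaction read by separating phosphorylated from unphosphorylated peptide on chip, with inhibition of kinase activity computed per concentration across a dose-response series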

Chain of ROCK2 (O75116 whole entry, species assumed): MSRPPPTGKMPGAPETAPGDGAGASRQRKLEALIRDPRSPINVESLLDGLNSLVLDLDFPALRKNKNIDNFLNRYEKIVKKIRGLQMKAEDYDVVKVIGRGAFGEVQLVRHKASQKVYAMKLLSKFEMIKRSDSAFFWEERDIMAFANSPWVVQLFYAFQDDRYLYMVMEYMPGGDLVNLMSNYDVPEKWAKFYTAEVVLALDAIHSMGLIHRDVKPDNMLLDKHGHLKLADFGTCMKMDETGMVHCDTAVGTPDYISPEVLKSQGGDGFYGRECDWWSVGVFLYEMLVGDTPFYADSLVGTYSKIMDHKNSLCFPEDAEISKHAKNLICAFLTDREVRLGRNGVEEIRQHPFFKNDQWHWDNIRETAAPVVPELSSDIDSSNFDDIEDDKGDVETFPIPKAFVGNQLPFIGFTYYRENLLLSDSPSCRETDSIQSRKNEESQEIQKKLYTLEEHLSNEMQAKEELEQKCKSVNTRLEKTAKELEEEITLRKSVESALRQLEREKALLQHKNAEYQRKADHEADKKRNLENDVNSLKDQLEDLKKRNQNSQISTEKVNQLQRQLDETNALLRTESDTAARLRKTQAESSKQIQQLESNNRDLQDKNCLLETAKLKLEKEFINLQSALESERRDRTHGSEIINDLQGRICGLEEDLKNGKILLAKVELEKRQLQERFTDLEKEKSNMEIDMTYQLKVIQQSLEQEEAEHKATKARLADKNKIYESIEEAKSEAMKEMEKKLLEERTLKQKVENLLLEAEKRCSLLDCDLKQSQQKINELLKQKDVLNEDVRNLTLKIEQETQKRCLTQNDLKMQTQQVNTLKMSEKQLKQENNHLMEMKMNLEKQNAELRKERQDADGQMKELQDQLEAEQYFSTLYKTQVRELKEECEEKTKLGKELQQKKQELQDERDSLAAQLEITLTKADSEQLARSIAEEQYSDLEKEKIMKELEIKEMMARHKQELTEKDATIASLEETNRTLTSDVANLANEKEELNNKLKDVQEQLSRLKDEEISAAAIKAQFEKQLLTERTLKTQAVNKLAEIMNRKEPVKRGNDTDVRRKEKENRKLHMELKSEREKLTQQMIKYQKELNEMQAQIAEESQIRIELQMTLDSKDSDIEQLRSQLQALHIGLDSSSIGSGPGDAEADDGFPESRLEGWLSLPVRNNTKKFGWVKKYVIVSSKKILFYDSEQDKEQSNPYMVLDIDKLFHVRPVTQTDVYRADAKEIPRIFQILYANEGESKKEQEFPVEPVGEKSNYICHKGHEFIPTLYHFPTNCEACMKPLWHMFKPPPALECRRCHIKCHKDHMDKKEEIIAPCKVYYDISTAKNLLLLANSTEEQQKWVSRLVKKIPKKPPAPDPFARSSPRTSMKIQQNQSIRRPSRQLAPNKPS

An IC50 of less than 5 nM was found for `CS(=O)(=O)c1ccccc1-c1cc(C#N)cc(C(=O)N[C@H]2CC3(C2)C[C@H](Oc2ncccc2C(N)=O)C3)c1` (stereo partly drawn) [Example 196, 2-(((aR)-6-(5-cyano-2′-(methylsulfonyl)-[1,1′-biphenyl]-3-ylcarboxamido)spiro[3.3]heptan-2-yl)oxy)nicotinamide] in this work.

An IC50 of 5 to 50 nM was found for `Cn1nccc1-c1cc(C#N)cc(C(=O)N[C@H]2CC3(C2)C[C@H](Oc2ncccc2C(N)=O)C3)c1` (stereo partly drawn) [Example 197, 2-(((aR)-6-(3-cyano-5-(1-methyl-1H-pyrazol-5-yl)benzamido)spiro[3.3]heptan-2-yl)oxy)nicotinamide] in this work.

An IC50 of less than 5 nM was found for `N#Cc1cc(C(=O)N[C@H]2CC3(C2)C[C@H](Oc2ncccc2C(N)=O)C3)cc(-c2cnn(C(F)F)c2)c1` (stereo partly drawn) [Example 198, 2-(((aR)-6-(3-cyano-5-(1-(difluoromethyl)-1H-pyrazol-4-yl)benzamido)spiro[3.3]heptan-2-yl)oxy)nicotinamide] in this work.

An IC50 of 5 to 50 nM was found for `[H][C@]1(Oc2ncccc2C(N)=O)C[C@@]2(C[C@H](NC(=O)c3cc(C#N)cc(-c4nc5c(s4)CNCC5)c3)C2)C1` (stereo partly drawn) [Example 199, 2-(((aR)-6-(3-cyano-5-(4,5,6,7-tetrahydrothiazolo[5,4-c]pyridin-2-yl)benzamido)spiro[3.3]heptan-2-yl)oxy)nicotinamide, 2TFA] in this work.

An IC50 of 5 to 50 nM was found for `CN1CCc2nc(-c3cc(C#N)cc(C(=O)N[C@H]4CC5(C4)C[C@H](Oc4ncccc4C(N)=O)C5)c3)sc2C1` (stereo partly drawn) [Example 200, 2-(((aR)-6-(3-cyano-5-(5-methyl-4,5,6,7-tetrahydrothiazolo[5,4-c]pyridin-2-yl)benzamido)spiro[3.3]heptan-2-yl)oxy)nicotinamide, bis-trifluoroacetate] in this work.

An IC50 of 5 to 50 nM was found for `Cc1nc(-c2cc(C#N)cc(C(=O)N[C@H]3CC4(C3)C[C@H](Oc3ncccc3C(N)=O)C4)c2)cs1` (stereo partly drawn) [Example 203, 2-(((aR)-6-(3-cyano-5-(2-methylthiazol-4-yl)benzamido)spiro[3.3]heptan-2-yl)oxy)nicotinamide, trifluoroacetate] in this work.

An IC50 of 250 to 2500 nM was found for `COc1cccc(C(N)=O)c1OC1CC2(CC(NC(=O)c3cnn4c(C5CC5)c(OCC(C)(C)O)ccc34)C2)C1` (stereo not drawn) [Example 208, N-(6-(2-carbamoyl-6-methoxyphenoxy)spiro[3.3]heptan-2-yl)-7-cyclopropyl-6-(2-hydroxy-2-methylpropoxy)pyrazolo[1,5-a]pyridine-3-carboxamide] in this work.

An IC50 of 250 to 2500 nM was found for `COc1cccc(C(N)=O)c1OC1CC2(CC(NC(=O)c3cnn4cc(OCC(C)(C)O)ccc34)C2)C1` (stereo not drawn) [Example 209, N-(6-(2-carbamoyl-6-methoxyphenoxy)spiro[3.3]heptan-2-yl)-6-(2-hydroxy-2-methylpropoxy)pyrazolo[1,5-a]pyridine-3-carboxamide] in this work.

An IC50 of 5 to 50 nM was found for `COc1ccc(C(N)=O)c(OC2CC3(CC(NC(=O)c4cnn5cc(OCC(C)(C)O)ccc45)C3)C2)c1` (stereo not drawn) [Example 210, N-(6-(2-carbamoyl-5-methoxyphenoxy)spiro[3.3]heptan-2-yl)-6-(2-hydroxy-2-methylpropoxy)pyrazolo[1,5-a]pyridine-3-carboxamide] in this work.

An IC50 of less than 5 nM was found for `COc1ccc(C(N)=O)c(OC2CC3(CC(NC(=O)c4cnn5c(C6CC6)c(OCC(C)(C)O)ccc45)C3)C2)c1` (stereo not drawn) [Example 211, N-(6-(2-carbamoyl-5-methoxyphenoxy)spiro[3.3]heptan-2-yl)-7-cyclopropyl-6-(2-hydroxy-2-methylpropoxy)pyrazolo[1,5-a]pyridine-3-carboxamide] in this work.

An IC50 of 250 to 2500 nM was found for `COc1ccc(OC2CC3(CC(NC(=O)c4cnn5cc(OCC(C)(C)O)ccc45)C3)C2)c(C(N)=O)c1` (stereo not drawn) [Example 212, N-(6-(2-carbamoyl-4-methoxyphenoxy)spiro[3.3]heptan-2-yl)-6-(2-hydroxy-2-methylpropoxy)pyrazolo[1,5-a]pyridine-3-carboxamide] in this work.

An IC50 of 5 to 50 nM was found for `COc1ccc(OC2CC3(CC(NC(=O)c4cnn5c(C6CC6)c(OCC(C)(C)O)ccc45)C3)C2)c(C(N)=O)c1` (stereo not drawn) [Example 213, N-(6-(2-carbamoyl-4-methoxyphenoxy)spiro[3.3]heptan-2-yl)-7-cyclopropyl-6-(2-hydroxy-2-methylpropoxy)pyrazolo[1,5-a]pyridine-3-carboxamide] in this work.
